Experimental data from publication PMC8291583, “Design, synthesis, and evaluation of 3,7-substituted coumarin derivatives as multifunctional Alzheimer’s disease agents” (Journal of Enzyme Inhibition and Medicinal Chemistry, 2021).
“And” between values parts separate entries of the source, which are not always exact repeats. Equal entries are not always repeated. Where two headings read alike, the source gives them in different places.

What was measured:
[1] = tested on: MPP+-compromised SH-SY5Y neuroblastoma cells; type: cell-based, human; conditions: 10 µM compound, 2000 µM MPP+; for MPP+ neuroprotection (difference in percentage cell viability vs MPP+ only treated cells): 2 h pre-treatment, 24 h, SH-SY5Y; for survival rate of MPP+-treated cells: untreated control = 100%
Method: SH-SY5Y cells were seeded onto a 96-well plate in a growth medium at a density of 10,000 cells/well. Cells were pre-treated with test compounds at a concentration of 10 µM and thereafter 2000 µM MPP^+ following a 2-h incubation period. Afterwards, cells were incubated for 24 h and MTT colorimetric assay was used to measure cell viability relative to untreated control. To determine the data’s statistical significance, the One-way ANOVA Turkey’s multiple comparison test was conducted on all experimental replicates using GraphPad Prism® 8 (San Diego, USA).
The SH-SY5Y cells were pre-treated with 10 µM of the test compounds for 2 h followed by the addition of 2000 µM of MPP^+.

[2] = target: Electrophorus electricus AChE (Electrophorus electricus, UniProt O42275); assay: biochemical; conditions: for IC50: 25 °C, pH 8
Method: Cholinesterase activity is determined using a modified colorimetric method first described by Ellman[40]. […] The stock was then further diluted by factors of ten to produce solutions of 1 mM, 100 µM, 10 µM, 1 µM, and 0.1 µM which corresponds to concentrations of 100 µM, 10 µM, 1 µM, 0.1 µM, and 0.01 µM in the final reaction mixture. The test concentrations were stored in the refrigerator until the day of the assay. Trisma HCl buffer (50 mM, adjusted to pH 8 with 2 N NaOH) was prepared as the buffer and used to prepare enzyme stock solution (22 U/ml for Electrophorus electricus AChE and 12 U/ml BuChE from equine serum), 15 mM acetylthiocholine iodide, 15 mM S-butyrylthiocholine iodide and 1.5 mM DTNB (Ellman’s reagent). The enzyme stock solution was stabilised with 1% bovine serum albumin and stored in aliquots at −80 °C. A clear, flat bottom 96 well plate was used to perform the experiments with each concentration performed in triplicate. Prior to the assay the background absorbance for each compound at the different test concentrations was measured and accounted for when reading the final absorbance. […] Following this, 30 µl of the substrate was added to each well simultaneously using a multi pipette. […] A one-sample t-test was performed on the data to test for statistical significance.

recombinant human MAO-A = target: T1, recombinant human MAO-A (Homo sapiens, UniProt P21397); assay: biochemical; conditions: 37 °C
T1 sequence (P21397 1-527): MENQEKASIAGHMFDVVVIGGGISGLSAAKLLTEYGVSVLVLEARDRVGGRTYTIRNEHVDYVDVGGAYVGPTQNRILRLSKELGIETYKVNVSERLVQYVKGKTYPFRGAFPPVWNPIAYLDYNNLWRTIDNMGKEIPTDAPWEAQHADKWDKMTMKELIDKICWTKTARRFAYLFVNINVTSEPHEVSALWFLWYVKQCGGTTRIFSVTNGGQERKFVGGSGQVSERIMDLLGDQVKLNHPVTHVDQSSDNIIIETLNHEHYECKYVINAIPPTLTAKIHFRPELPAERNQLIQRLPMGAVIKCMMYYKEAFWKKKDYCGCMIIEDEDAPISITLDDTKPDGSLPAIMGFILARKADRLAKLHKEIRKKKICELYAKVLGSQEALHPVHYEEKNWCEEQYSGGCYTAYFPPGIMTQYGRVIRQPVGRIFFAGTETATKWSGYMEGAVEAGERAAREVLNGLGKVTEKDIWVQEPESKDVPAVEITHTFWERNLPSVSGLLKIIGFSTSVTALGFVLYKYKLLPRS
Method: The stock was then further diluted by factors of ten to produce solutions of 1 mM, 100 µM, 10 µM, 1 µM, and 0.1 µM which would correspond to concentrations of 100 µM, 10 µM, 1 µM, 0.1 µM, and 0.01 µM in the final reaction mixture. A potassium phosphate buffer ([…] 100 mM, pH 7.4, 0.9% w/v NaCl) was prepared and refrigerated until further use. The enzyme stock solutions were prepared by dissolving 2.5 mg of enzyme in 33.33 ml of phosphate buffer to produce stock solutions of 0.075 mg/ml which were stored in aliquots at −80 °C until use. Once in the final reaction mixture, this enzyme solution will have a concentration of 0.0075 mg/ml. […] The fresh substrate was prepared on the day of the assay. The assay was carried out in 2 ml Eppendorf vials. […] Following this, 25 µl of the enzyme stock were added to each vial in 10 s intervals and the vials were incubated at 37 °C for 10 min. […] To stop the reaction at the end of this time 150 hx00B5;l of 2 N NaOH was added and the mixture was shaken. Using a micropipette 80 hx00B5;l of the mixture was transferred to a well in a black 96 well plate. The plate was placed in the fluorescent plate reader and read at an excitation/emission wavelength of 310 nm/410 nm. Each assay was run in triplicate and the data were analysed with Graph Pad Prism 8 software (San Diego, USA).
The MAO inhibitory activity of the compounds was assessed using a fluorometric assay with recombinant human MAO-A and human MAO-B enzymes.

recombinant human MAO-B = recombinant human MAO-B (Homo sapiens, UniProt P27338); assay: MAO-B fluorometric assay (kynuramine); type: biochemical; conditions: for IC50: kynuramine 30 µM, 37 °C, read-out: MAO-B IC50
Method: . The stock was then further diluted by factors of ten to produce solutions of 1 mM, 100 µM, 10 µM, 1 µM, and 0.1 µM which would correspond to concentrations of 100 µM, 10 µM, 1 µM, 0.1 µM, and 0.01 µM in the final reaction mixture. A potassium phosphate buffer ([…] 100 mM, pH 7.4, 0.9% w/v NaCl) was prepared and refrigerated until further use. The enzyme stock solutions were prepared by dissolving 2.5 mg of enzyme in 33.33 ml of phosphate buffer to produce stock solutions of 0.075 mg/ml which were stored in aliquots at −80 °C until use. […]. The substrate was prepared by dissolving kynuramine in potassium buffer and was prepared as two separate concentrations; […]. The fresh substrate was prepared on the day of the assay. The assay was carried out in 2 ml Eppendorf vials. […] Following this, 25 µl of the enzyme stock were added to each vial in 10 s intervals and the vials were incubated at 37 °C for 10 min. After this time period 15 µl of kynuramine (750 µM for MAO-A and 500 µM for MAO-B) was added at 10 s intervals and further incubated for 20 min. To stop the reaction at the end of this time 150 hx00B5;l of 2 N NaOH was added and the mixture was shaken. Using a micropipette 80 hx00B5;l of the mixture was transferred to a well in a black 96 well plate. The plate was placed in the fluorescent plate reader and read at an excitation/emission wavelength of 310 nm/410 nm. Each assay was run in triplicate and the data were analysed with Graph Pad Prism 8 software (San Diego, USA).
The MAO inhibitory activity of the compounds was assessed using a fluorometric assay with recombinant human MAO-A and human MAO-B enzymes. […].

[3] = Ellman method, read-out: AChE IC50
[4] = kynuramine 45 µM, read-out: MAO-A IC50

Sequence of Electrophorus electricus AChE (O42275 24-633): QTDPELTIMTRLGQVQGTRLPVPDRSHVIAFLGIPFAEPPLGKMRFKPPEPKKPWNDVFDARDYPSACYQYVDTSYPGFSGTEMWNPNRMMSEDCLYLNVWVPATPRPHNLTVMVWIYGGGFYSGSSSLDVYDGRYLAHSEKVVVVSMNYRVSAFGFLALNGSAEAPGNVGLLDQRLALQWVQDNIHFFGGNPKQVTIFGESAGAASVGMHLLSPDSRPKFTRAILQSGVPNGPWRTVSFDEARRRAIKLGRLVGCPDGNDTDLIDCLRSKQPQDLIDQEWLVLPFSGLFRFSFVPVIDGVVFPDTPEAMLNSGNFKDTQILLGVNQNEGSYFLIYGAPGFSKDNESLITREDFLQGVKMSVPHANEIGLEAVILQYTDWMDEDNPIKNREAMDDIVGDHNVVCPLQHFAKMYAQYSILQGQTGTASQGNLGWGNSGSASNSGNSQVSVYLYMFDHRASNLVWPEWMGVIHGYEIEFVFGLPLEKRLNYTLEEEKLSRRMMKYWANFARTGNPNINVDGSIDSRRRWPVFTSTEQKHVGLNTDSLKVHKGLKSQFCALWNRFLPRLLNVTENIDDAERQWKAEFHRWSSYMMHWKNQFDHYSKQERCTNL
Sequence of recombinant human MAO-B (P27338 whole entry): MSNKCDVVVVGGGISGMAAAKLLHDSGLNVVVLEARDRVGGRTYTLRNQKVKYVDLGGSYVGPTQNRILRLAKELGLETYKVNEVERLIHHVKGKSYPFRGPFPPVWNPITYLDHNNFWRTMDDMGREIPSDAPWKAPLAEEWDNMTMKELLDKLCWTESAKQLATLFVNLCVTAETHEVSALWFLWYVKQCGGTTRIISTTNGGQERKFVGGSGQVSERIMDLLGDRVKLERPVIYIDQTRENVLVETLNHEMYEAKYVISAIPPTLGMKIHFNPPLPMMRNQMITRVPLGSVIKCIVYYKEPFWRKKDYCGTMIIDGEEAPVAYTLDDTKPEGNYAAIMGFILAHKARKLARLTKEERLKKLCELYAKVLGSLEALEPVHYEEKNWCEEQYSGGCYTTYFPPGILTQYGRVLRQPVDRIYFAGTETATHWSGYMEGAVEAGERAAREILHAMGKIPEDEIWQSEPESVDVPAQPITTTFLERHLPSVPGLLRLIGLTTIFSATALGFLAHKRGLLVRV

Structure (SMILES) | MPP+ neuroprotection (difference in percentage cell viability vs MPP+ only treated cells) [1] [%] | IC50 [2, 3] | inhibition at 100 µM ([2]; at 100 µM, read-out: AChE enzyme inhibition) [%] | IC50 (recombinant human MAO-A; [4]) | SI MAO-B (MAO-B selectivity index = IC50(MAO-A)/IC50(MAO-B)) (recombinant human MAO-B) | IC50 (recombinant human MAO-B) [nM] | survival rate of MPP+-treated cells [1] [%] | IC50 ([2]; AChE IC50, Ellman method) [µM] | IC50 (recombinant human MAO-A; MAO-A IC50, kynuramine 45 µM) [nM]
CCN(CC)C(=O)Oc1ccc2cc(CBr)c(=O)oc2c1 [Compound 5, 3-(bromomethyl)-2-oxo-2H-1-benzopyran-7-yl-diethylcarbamate] | 21.86 | ~108 µM and 108 µM | 49 | 360 nM and 355 nM | 1.05 | 333 | – | – | –
C#CCNCc1cc2ccc(OC(=O)N(CC)CC)cc2oc1=O [Compound 7, 2-oxo-3-{[(prop-2-yn-1-yl)amino]methyl}-2H-1-benzopyran-7-yl-diethylcarbamate] | 28.19 | – | – | – | 205.9 | 101 | 85 | > 100 | 20800
O=c1oc2cc(OCCc3ccccc3)ccc2cc1CBr [Compound 4, 3-(bromomethyl)-7-(2-phenylethoxy)-2H-1-benzopyran-2-one] | 22.11 | > 100 µM | – | 480 nM and 476 nM | – | > 100000 | – | – | –
C#CCNCc1cc2ccc(OCCc3ccccc3)cc2oc1=O [Compound 6, 7-(2-phenylethoxy)-3-{[(prop-2-yn-1-yl)amino]methyl}-2H-1-benzopyran-2-one] | 35.96 | > 100 µM | – | 3860 nM | 133.2 | 29 | 92 | – | –
